Reference: US12496218B1, “Fractionated topical ocular drug delivery methods and devices for use in the same” (Bausch + Lomb Ireland Limited, priority 2019, dated 2025)

Tests used:
humans [1] = test: Intraocular pressure (IOP) in human subjects after topical ocular micro-dosing, conventional vs fractionated; type: in vivo; conditions: FIG. 5
humans [2] = test: Distance corrected near visual acuity (DCNVA) in human subjects after topical ocular micro-dosing, conventional vs fractionated

## CC[C@@H]1C(=O)OC[C@@H]1Cc1cncn1C [pilocarpine]
Humans [1]; dose regimen B: fractionated 1% pilocarpine
  IOP (intraocular pressure) result, regimen B compared with regimen C: performed much better
Humans [1]; dose regimen C: single dose of 2% pilocarpine
  IOP (intraocular pressure) result: null IOP result
Humans [2]; 2% pilocarpine, double dosing (regimen D) vs single dose (regimen C)
  toxic effects: absence of any evident toxic effects
Humans [2]; dose regimen B (fractionated 1% pilocarpine), both eyes, photopic conditions, FIG. 4, significant at 1 and 2 hours post-dosing
  change from baseline DCNVA (letter score): biggest gain from baseline at all time points
Humans [2]; dose regimen B: double (fractionated) micro-dose of 1% pilocarpine, 5 minute interval, mesopic and photopic illumination
  portion of subjects who gained more than 15 letters of distance corrected near vision compared with baseline: 66.7%
Humans [2]; dose regimen C: single non fractionated dose of 2% pilocarpine
  eyes that achieved 3 lines of distance corrected near vision improvement: 33.3%
Humans [2]; dose regimen D: double dosing of 2% pilocarpine
  eyes that achieved 3 lines of distance corrected near vision improvement: 0%
Humans [2]; double (fractionated) dose of 1% pilocarpine (B) vs single conventional dose of 1% pilocarpine (A)
  distance corrected near visual acuity, group B compared with group A: statistically significant improvement
Humans [2]; fractionated micro-dose of 1% pilocarpine (B) vs 1 dose of 2% pilocarpine (C), mesopic and photopic
  distance corrected near vision, regimen B compared with regimen C (same total drug amount): performed significantly better
